Experiments:
Assay type in all cases: biochemical
recombinant human DPP7 = target: T1, recombinant human DPP7 (Homo sapiens, UniProt Q9UHL4); experiment: DPP7 inhibition, fluorogenic substrate Lys-Pro-AMC; details: recombinant human DPP7
T1 construct: purchased R&D Systems
In short: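 Inhibitors are titrated in an 8-point series into the enzyme's assay buffer (DMSO no more than 0.5%). Substrate cleavage at 25 °C is followed by fluorescence, excitation 380 nm and emission 460 nm. IC50 values come from a four-variable logistic model.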

recombinant human PREP = target: T2, recombinant human PREP (Homo sapiens, UniProt P48147); experiment: PREP inhibition, fluorogenic substrate Z-Gly-Pro-AMC; details: Inhibitory Activity (IC50, nM) PREP, recombinant human PREP
T2 construct: purchased R&D System
T2 sequence (P48147 1-710): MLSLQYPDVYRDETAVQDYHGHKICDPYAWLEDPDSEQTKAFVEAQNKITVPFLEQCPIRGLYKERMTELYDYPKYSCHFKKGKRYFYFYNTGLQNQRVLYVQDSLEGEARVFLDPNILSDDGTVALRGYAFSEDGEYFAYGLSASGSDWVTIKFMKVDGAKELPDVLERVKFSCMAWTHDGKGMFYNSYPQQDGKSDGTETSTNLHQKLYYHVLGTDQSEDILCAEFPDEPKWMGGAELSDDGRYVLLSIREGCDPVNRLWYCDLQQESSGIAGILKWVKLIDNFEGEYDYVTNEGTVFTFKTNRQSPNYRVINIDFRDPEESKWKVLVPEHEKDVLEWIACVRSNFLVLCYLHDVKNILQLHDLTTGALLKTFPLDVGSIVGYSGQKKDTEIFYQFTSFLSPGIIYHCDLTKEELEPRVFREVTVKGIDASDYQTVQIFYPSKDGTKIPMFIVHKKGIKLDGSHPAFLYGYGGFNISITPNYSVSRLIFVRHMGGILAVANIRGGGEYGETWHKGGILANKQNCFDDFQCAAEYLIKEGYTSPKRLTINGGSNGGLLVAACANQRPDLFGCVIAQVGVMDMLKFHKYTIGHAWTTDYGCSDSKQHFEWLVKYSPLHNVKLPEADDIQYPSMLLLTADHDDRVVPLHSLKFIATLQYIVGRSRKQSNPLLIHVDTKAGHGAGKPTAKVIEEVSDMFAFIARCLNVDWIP
Method: (§1) The compounds according to the present technology were evaluated in terms of the inhibitory effect on the activity of dipeptidyl peptidases including FAP by using a substrate producing fluorescent substances upon enzymatic decomposition. The test was conducted at 25° C. to get a final reaction volume of 100 μL in a 96 black well plate. […] Briefly, the test compounds were dissolved in dimethyl sulfoxide (DMSO) at a concentration of 20 mM and then subjected to serial dilution, thereby creating an 8 point curve. As for the control group, a 6 point curve created by serial dilution of Talabostat in the same buffer solution was used. Fluorescence intensity was measured using a microplate reader (Flexstation3, Molecular Devices) under the wavelength condition exciting at 380 nm and reading the emission at 460 nm. The inhibitory effect of the test compounds was measured as a decrease (%) in the signal rate as compared to the control group without any inhibitor. Data was fixed to a logistic model with four variables and IC50 value was calculated using GraphPad Prism program. As for recombinant human DPP4 (R&D Systems), 25 mM tris (pH 8.0) buffer as a buffer solution and H-Gly-Pro-AMC (Bachem) as a substrate were used. As for recombinant human DPP7 (R&D Systems), 25 mM MES (pH 6.0) buffer as a buffer solution and Lys-Pro-AMC (Bachem) as a substrate were used. As for recombinant human DPP8 (PBS Bioscience), as a buffer solution, a 10 mM tris (pH 7.4) buffer comprising 10 mM of magnesium chloride and 0.05% of Tween 20, and Z-Ala-Pro-AMC (BPS Bioscience) as a substrate were used. As for recombinant human DPP9 (R&D Systems), a 25 mM tris (pH 8.0) buffer as a buffer solution and H-Gly-Pro-AMC (Bachem) as a substrate were used. As for recombinant human PREP (R&D System), as a buffer solution, a 25 mM tris (pH 7.5) buffer comprising 250 mM sodium chloride and 2.5 mM DTT (Dithiolthreitol), and Z-Gly-Pro-AMC (Bachem) as a substrate were used. The evaluation was made by using 10 ng of DPP4, PDD7, and PREP, 20 ng of DPP8, and 50 ng of DPP9 based on the final reaction. In the evaluation of DPP4, the test compounds were subjected to serial dilution in a buffer under the condition containing up to 0.1% of DMSO. In the evaluation of DPP7, DPP8, DPP9, and PREP, the test compounds were subjected to serial dilution in each buffer under the condition containing up to 0.5% of DMSO.

recombinant human DPP9 = target: T3, recombinant human DPP9 (Homo sapiens, UniProt Q86TI2); experiment: DPP9 inhibition, fluorogenic substrate H-Gly-Pro-AMC; details: recombinant human DPP9
T3 construct: purchased R&D Systems
Method: as §1

DPP4 = DPP4 (Homo sapiens, UniProt P27487); experiment: DPP4 inhibition, fluorogenic substrate H-Gly-Pro-AMC; set-up: purchased R&D Systems; details: recombinant human DPP4
Recombinant human FAP = target: T4, Recombinant human FAP (Homo sapiens, UniProt Q12884); experiment: FAP FRET assay, FGF21-sequence FRET peptide substrate; details: FRET peptide with human FGF21 sequence, 6 μM, 37° C.
T4 construct: purchased R&D systems
T4 sequence (Q12884 1-760): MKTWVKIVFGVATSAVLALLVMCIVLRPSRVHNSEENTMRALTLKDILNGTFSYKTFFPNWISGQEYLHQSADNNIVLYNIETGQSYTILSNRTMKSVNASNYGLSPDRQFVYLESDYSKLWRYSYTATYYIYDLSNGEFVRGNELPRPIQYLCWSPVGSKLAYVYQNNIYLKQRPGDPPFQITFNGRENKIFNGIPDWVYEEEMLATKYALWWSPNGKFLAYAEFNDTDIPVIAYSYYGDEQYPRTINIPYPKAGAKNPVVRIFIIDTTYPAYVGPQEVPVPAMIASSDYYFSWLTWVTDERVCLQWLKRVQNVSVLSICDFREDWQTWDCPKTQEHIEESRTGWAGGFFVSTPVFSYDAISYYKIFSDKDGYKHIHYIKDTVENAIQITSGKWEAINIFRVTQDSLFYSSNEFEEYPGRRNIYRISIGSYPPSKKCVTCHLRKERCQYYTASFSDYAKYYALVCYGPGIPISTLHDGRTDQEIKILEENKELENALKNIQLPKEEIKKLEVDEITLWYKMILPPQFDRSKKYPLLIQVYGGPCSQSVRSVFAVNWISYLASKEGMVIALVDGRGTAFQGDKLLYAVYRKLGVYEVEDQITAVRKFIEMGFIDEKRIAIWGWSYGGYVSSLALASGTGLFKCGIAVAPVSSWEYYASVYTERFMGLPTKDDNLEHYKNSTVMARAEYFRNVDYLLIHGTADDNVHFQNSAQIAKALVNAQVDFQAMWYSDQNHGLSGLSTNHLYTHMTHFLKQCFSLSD
In short: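 FRET peptide bearing human FGF21 sequence (6 μM final) cleaved by 10 ng recombinant human FAP at 37° C in HEPES pH 7.2 buffer with NaCl, BSA and EDTA, DMSO up to 0.1%. Signal-rate decrease versus uninhibited control fitted to a four-variable logistic model for IC50.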

Sequence of DPP4 (P27487 whole entry): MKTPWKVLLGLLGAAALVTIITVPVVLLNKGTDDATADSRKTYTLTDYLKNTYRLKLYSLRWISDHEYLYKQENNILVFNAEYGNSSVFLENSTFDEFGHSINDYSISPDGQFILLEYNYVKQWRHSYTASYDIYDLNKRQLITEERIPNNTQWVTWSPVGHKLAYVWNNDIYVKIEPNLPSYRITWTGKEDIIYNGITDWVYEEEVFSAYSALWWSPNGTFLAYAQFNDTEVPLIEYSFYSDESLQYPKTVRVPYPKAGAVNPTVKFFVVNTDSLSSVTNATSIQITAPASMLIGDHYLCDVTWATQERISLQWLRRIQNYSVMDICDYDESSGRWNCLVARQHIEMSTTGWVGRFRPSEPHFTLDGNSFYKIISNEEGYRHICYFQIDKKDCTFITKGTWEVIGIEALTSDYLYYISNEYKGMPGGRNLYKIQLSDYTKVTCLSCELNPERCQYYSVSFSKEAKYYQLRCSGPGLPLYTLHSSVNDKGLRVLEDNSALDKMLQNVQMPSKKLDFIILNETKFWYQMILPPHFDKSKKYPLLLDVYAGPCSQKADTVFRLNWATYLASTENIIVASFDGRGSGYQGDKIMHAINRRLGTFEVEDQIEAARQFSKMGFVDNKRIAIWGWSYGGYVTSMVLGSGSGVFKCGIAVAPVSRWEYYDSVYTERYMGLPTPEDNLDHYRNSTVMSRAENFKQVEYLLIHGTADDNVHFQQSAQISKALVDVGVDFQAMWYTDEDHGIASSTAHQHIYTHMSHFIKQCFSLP
T3 sequence (Q86TI2 whole entry): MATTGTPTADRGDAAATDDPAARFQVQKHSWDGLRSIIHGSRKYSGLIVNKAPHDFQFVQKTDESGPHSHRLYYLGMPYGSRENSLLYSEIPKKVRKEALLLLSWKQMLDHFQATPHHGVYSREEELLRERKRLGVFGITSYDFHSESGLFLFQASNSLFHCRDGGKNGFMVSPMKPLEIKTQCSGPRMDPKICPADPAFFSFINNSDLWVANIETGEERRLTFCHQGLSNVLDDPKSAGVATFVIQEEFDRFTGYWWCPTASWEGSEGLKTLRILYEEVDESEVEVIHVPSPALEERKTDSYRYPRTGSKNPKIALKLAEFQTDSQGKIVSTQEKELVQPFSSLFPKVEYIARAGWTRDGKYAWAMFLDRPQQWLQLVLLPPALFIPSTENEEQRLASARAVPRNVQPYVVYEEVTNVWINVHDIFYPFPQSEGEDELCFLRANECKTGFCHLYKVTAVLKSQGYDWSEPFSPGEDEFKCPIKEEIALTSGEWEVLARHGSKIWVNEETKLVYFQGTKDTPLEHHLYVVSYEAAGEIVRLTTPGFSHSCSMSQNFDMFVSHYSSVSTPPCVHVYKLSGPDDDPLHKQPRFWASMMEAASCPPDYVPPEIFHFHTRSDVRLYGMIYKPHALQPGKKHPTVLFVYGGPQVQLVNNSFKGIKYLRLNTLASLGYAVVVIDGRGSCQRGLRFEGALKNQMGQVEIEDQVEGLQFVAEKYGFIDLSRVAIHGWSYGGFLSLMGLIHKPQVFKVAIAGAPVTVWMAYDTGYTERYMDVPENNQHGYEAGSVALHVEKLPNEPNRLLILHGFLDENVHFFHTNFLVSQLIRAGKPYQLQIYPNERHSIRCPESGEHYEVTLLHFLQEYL

CN(c1ccc(OC(F)(F)F)c2ncccc12)[C@H]1CCN(CC(=O)N2C[C@@H](F)C[C@H]2C#N)C1 [Example 160, (2S,4S)-4-fluoro-1-[2-[(3S)-3-[methyl-[8-(trifluoromethoxy)-5-quinolyl]amino]pyrrolidin-1-yl]acetyl]pyrrolidine-2-carbonitrile]
IC50 (recombinant human DPP7): 77.8 nM
IC50 (recombinant human PREP): 1080 nM
IC50 (recombinant human DPP9): 2820 nM
IC50 (DPP4): 1780 nM
IC50 (Recombinant human FAP): 4.9 nM

N#C[C@@H]1C[C@H](F)CN1C(=O)CN1CC[C@@H](Nc2cnc3nc(Cl)ccc3c2)C1 [Example 172, (2S,4S)-4-fluoro-1-[2-[(3R)-3-[(7-chloro-1,8-naphthyridin-3-yl)amino]pyrrolidin-1-yl]acetyl]pyrrolidine-2-carbonitrile]
IC50 (recombinant human DPP7): 4900 nM
IC50 (recombinant human PREP): 4240 nM
IC50 (recombinant human DPP9): 5400 nM
IC50 (DPP4): 1870 nM
IC50 (Recombinant human FAP): 9.3 nM

N#C[C@@H]1C[C@H](F)CN1C(=O)CN1CC[C@@H](Nc2c(F)ccc3ncccc23)C1 [Example 173, (2S,4S)-4-fluoro-1-[2-[(3R)-3-[(6-fluoro-5-quinolyl)amino]pyrrolidin-1-yl]acetyl]pyrrolidine-2-carbonitrile]
IC50 (recombinant human DPP7): 11100 nM
IC50 (recombinant human PREP): 1870 nM
IC50 (recombinant human DPP9): 2950 nM
IC50 (DPP4): 1120 nM
IC50 (Recombinant human FAP): 5.3 nM

N#C[C@@H]1C[C@H](F)CN1C(=O)CN1CC[C@@H](Nc2cc(F)cc3ncccc23)C1 [Example 174, (2S,4S)-4-fluoro-1-[2-[(3R)-3-[(7-fluoro-5-quinolyl)amino]pyrrolidin-1-yl]acetyl]pyrrolidine-2-carbonitrile]
IC50 (recombinant human DPP7): 846 nM
IC50 (recombinant human PREP): 2440 nM
IC50 (recombinant human DPP9): 1990 nM
IC50 (DPP4): 3020 nM
IC50 (Recombinant human FAP): 2.6 nM

COc1cc(N[C@@H]2CCN(CC(=O)N3C[C@@H](F)C[C@H]3C#N)C2)c2cccnc2c1 [Example 177, (2S,4S)-4-fluoro-1-[2-[(3R)-3-[(7-methoxy-5-quinolyl)amino]pyrrolidin-1-yl]acetyl]pyrrolidine-2-carbonitrile]
IC50 (recombinant human DPP7): 46.9 nM
IC50 (recombinant human PREP): 2920 nM
IC50 (recombinant human DPP9): 1170 nM
IC50 (DPP4): 3420 nM
IC50 (Recombinant human FAP): 2.6 nM

COc1ccc(N[C@@H]2CCN(CC(=O)N3C[C@@H](F)C[C@H]3C#N)C2)c2cccnc12 [Example 178, (2S,4S)-4-fluoro-1-[2-[(3R)-3-[(8-methoxy-5-quinolyl)amino]pyrrolidin-1-yl]acetyl]pyrrolidine-2-carbonitrile]
IC50 (recombinant human DPP7): 5960 nM
IC50 (recombinant human PREP): 2350 nM
IC50 (recombinant human DPP9): 2570 nM
IC50 (DPP4): 1360 nM
IC50 (Recombinant human FAP): 10.1 nM

Cc1cnc2cccc(N[C@@H]3CCN(CC(=O)N4C[C@@H](F)C[C@H]4C#N)C3)c2c1 [Example 179, (2S,4S)-4-fluoro-1-[2-[(3R)-3-[(3-methyl-5-quinolyl)amino]pyrrolidin-1-yl]acetyl]pyrrolidine-2-carbonitrile]
IC50 (recombinant human DPP7): 401 nM
IC50 (recombinant human PREP): 2930 nM
IC50 (recombinant human DPP9): 2560 nM
IC50 (DPP4): 1940 nM
IC50 (Recombinant human FAP): 3.6 nM

Cc1ccc2ncccc2c1N[C@@H]1CCN(CC(=O)N2C[C@@H](F)C[C@H]2C#N)C1 [Example 180, (2S,4S)-4-fluoro-1-[2-[(3R)-3-[(6-methyl-5-quinolyl)amino]pyrrolidin-1-yl]acetyl]pyrrolidine-2-carbonitrile]
IC50 (recombinant human DPP7): 6790 nM
IC50 (recombinant human PREP): 1560 nM
IC50 (recombinant human DPP9): 3180 nM
IC50 (DPP4): 1020 nM
IC50 (Recombinant human FAP): 6.2 nM

Cc1ccc(N[C@@H]2CCN(CC(=O)N3C[C@@H](F)C[C@H]3C#N)C2)c2cccnc12 [Example 181, (2S,4S)-4-fluoro-1-[2-[(3R)-3-[(8-methyl-5-quinolyl)amino]pyrrolidin-1-yl]acetyl]pyrrolidine-2-carbonitrile]
IC50 (recombinant human DPP7): 215 nM
IC50 (recombinant human PREP): 4670 nM
IC50 (recombinant human DPP9): 4620 nM
IC50 (DPP4): 1060 nM
IC50 (Recombinant human FAP): 2.6 nM

N#C[C@@H]1C[C@H](F)CN1C(=O)CN1CC[C@@H](Nc2cc(C(F)(F)F)cc3ncccc23)C1 [Example 182, (2S,4S)-4-fluoro-1-[2-[(3R)-3-[[7-(trifluoromethyl)-5-quinolyl]amino]pyrrolidin-1-yl]acetyl]pyrrolidine-2-carbonitrile]
IC50 (recombinant human DPP7): 819 nM
IC50 (recombinant human PREP): 5360 nM
IC50 (recombinant human DPP9): 6690 nM
IC50 (DPP4): 4070 nM
IC50 (Recombinant human FAP): 3.3 nM

From US11655235B2, “Pyrrolidine and piperidine compounds” (YUHAN CORPORATION, priority 2019, dated 2023)
